The values that follow are results of earlier work, collected in US20230346696A1, “SPRAY DRIED LOW HYGROSCOPICITY ACTIVE POWDER COMPOSITIONS” (PHILIP MORRIS PRODUCTS S.A., priority 2020, published 2023).

The conditions of the data set: 25° C.

Consider `OC[C@H]1O[C@H](O[C@H]2O[C@H](CO)[C@@H](O)[C@H](O)[C@H]2O)[C@H](O)[C@@H](O)[C@@H]1O` [trehalose], for which the solubility is recorded as 69 g/100 ml water.
